Results reported in patent US11339171B2, “MDM2 inhibitors” (Gan & Lee Pharmaceuticals, priority 2017, dated 2022).

These molecules were tested against T1, MDM2 (Homo sapiens, UniProt Q00987) (assay: Inhibition test of MDM2-P53 (GST-MDM2, Biotin-P53, Anti-GST-Tb, SA-XL665)).
T1 construct: made in house
T1 sequence (Q00987 whole entry): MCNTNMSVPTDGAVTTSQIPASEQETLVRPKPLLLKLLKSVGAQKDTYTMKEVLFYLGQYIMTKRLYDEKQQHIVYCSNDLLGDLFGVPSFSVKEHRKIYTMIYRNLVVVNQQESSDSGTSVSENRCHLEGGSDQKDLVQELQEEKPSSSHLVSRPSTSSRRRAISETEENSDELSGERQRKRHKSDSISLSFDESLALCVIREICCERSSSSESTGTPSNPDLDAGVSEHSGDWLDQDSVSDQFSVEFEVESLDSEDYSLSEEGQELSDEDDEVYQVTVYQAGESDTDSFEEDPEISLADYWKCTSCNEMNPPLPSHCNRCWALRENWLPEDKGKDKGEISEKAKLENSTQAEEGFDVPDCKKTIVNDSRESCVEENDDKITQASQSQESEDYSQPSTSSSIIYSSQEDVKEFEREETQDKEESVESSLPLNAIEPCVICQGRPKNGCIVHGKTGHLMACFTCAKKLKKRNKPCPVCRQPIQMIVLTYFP
Assay type: binding
Outline: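 HTRF-type assay using 4 nM GST-MDM2 (final), Biotin-P53, SA-XL665 and anti-GST-Tb in PBS with 0.1% BSA, 5 mM DTT and 1 mM AEBSF. Compounds in 5-fold serial dilutions over twelve points; incubation 90 min at 25° C with shaking before plate-reader read-out.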
In the case of `COc1cc(OC(C)C)ncc1-c1nc2c(n1C(C)C)[C@]1(C(=O)Nc3cc(Cl)ccc31)N(c1cccc(Cl)c1)C2=O` [Example R-95, (R)-6-chloro-5′-(3-chlorophenyl)-2′-(6-isopropoxy-4-methoxypyridin-3-yl)-3′-isopropyl-3′H-spiro[dihydroindole-3,4′-pyrrolo[3,4-d]imidazole]-2,6′(5′H)-dione], the IC50 is reported as 1670 nM.
`CCOc1cc(OC)c(-c2nc3c(n2C(C)C)[C@]2(C(=O)Nc4cc(Cl)ccc42)N(c2cc(Cl)cnc2C)C3=O)cn1` [Example R-96, (R)-6-chloro-5′-(5-chloro-2-methylpyridin-3-yl)-2′-(6-ethoxy-4-methoxypyridin-3-yl)-3′-isopropyl-3′H-spiro[dihydroindole-3,4′-pyrrolo[3,4-d]imidazole]-2,6′(5′H)-dione] gave an IC50 of 151 nM.
Work on `CCOc1cc(OC)c(-c2nc3c(n2C(C)C)[C@]2(C(=O)Nc4cc(Cl)ccc42)N(c2cc(Cl)ccc2F)C3=O)cn1` [Example R-98, (R)-6-chloro-5′-(5-chloro-2-fluorophenyl)-2′-(6-ethoxy-4-methoxypyridin-3-yl)-3′-isopropyl-3′H-spiro[dihydroindole-3,4′-pyrrolo[3,4-d]imidazole]-2,6′(5′H)-dione] yielded an IC50 of 1030 nM.
`CCOc1ccc(-c2nc3c(n2C(C)C)[C@]2(C(=O)Nc4cc(Cl)ccc42)N(c2cccc(Cl)c2)C3=O)c(OC)c1` [Example R-100, (R)-6-chloro-5′-(3-chlorophenyl)-2′-(4-ethoxy-2-methoxyphenyl)-3′-isopropyl-3′H-spiro[dihydroindole-3,4′-pyrrolo[3,4-d]imidazole]-2,6′(5′H)-dione] showed an IC50 of 633 nM.
Work on `COc1cc(C(C)(C)C)ccc1-c1nc2c(n1C(C)C)[C@]1(C(=O)Nc3cc(Cl)ccc31)N(c1cc(Cl)ccc1C)C2=O` [Example R-101, (R)-2′-(4-(tert-butyl)-2-methoxyphenyl)-6-chloro-5′-(5-chloro-2-methylphenyl)-3′-isopropyl-3′H-spiro[dihydroindole-3,4′-pyrrolo[3,4-d]imidazole]-2,6′(5′H)-dione] yielded an IC50 of 2000 nM.
In the case of `CCOc1cc(OC)c(-c2nc3c(n2C(C)C)[C@]2(C(=O)Nc4cc(Cl)ccc42)N(c2cccc(Cl)c2)C3=O)cn1` [Example R-102, (R)-6-chloro-5′-(3-chlorophenyl)-2′-(6-ethoxy-4-methoxypyridin-3-yl)-3′-isopropyl-3′H-spiro[dihydroindole-3,4′-pyrrolo[3,4-d]imidazole]-2,6′(5′H)-dione], the IC50 is reported as 413 nM.
With `CCN(CC)c1ccc(-c2nc3c(n2C(C)C)[C@]2(C(=O)Nc4cc(Cl)ccc42)N(c2cc(Cl)ccc2C)C3=O)c(OC)c1` [Example R-105, (R)-6-chloro-5′-(5-chloro-2-methylphenyl)-2′-(4-(diethylamino)-2-methoxyphenyl)-3′-isopropyl-3′H-spiro[dihydroindole-3,4′-pyrrolo[3,4-d]imidazole]-2,6′(5′H)-dione] the IC50 was 343 nM.
`COc1cc(C2CC2)ncc1-c1nc2c(n1C(C)C)[C@]1(C(=O)Nc3cc(Cl)ccc31)N(c1cccc(Cl)c1)C2=O` [Example R-106, (R)-6-chloro-5′-(3-chlorophenyl)-2′-(6-cyclopropyl-4-methoxypyridin-3-yl)-3′-isopropyl-3′H-spiro[dihydroindole-3,4′-pyrrolo[3,4-d]imidazole]-2,6′(5′H)-dione] showed an IC50 of 481 nM.
Molecule `COc1cc(C2CC2)cc(OC)c1-c1nc2c(n1C(C)C)[C@]1(C(=O)Nc3cc(Cl)ccc31)N(c1cc(Cl)ccc1C)C2=O` [Example R-108, (R)-6-chloro-5′-(5-chloro-2-methylphenyl)-2′-(4-cyclopropyl-2,6-dimethoxyphenyl)-3′-isopropyl-3′H-spiro[dihydroindole-3,4′-pyrrolo[3,4-d]imidazole]-2,6′(5′H)-dione] has an IC50 of 691 nM.
With `COc1cc(OC2CC2)ncc1-c1nc2c(n1C(C)C)[C@]1(C(=O)Nc3cc(Cl)ccc31)N(c1cc(Cl)ccc1C)C2=O` [Example R-110, (R)-6-chloro-5′-(5-chloro-2-methylphenyl)-2′-(6-cyclopropoxy-4-methoxypyridin-3-yl)-3′-isopropyl-3′H-spiro[dihydroindole-3,4′-pyrrolo[3,4-d]imidazole]-2,6′(5′H)-dione] the IC50 was 704 nM.
`COc1nc(N(C)C)ncc1-c1nc2c(n1C(C)C)[C@]1(C(=O)Nc3cc(Cl)ccc31)N(c1cccc(Cl)c1)C2=O` [Example R-112, (R)-6-chloro-5′-(3-chlorophenyl)-2′-(2-(dimethylamino)-4-methoxypyrimidin-5-yl)-3′-isopropyl-3′H-spiro[dihydroindole-3,4′-pyrrolo[3,4-d]imidazole]-2,6′(5′H)-dione] showed an IC50 of 104 nM.
Molecule `COc1cc(C2CC2)ccc1-c1nc2c(n1C(C)C)[C@]1(C(=O)Nc3cc(Cl)ccc31)N(c1cccc(Cl)c1)C2=O` [Example R-116, (R)-6-chloro-5′-(3-chlorophenyl)-2′-(4-cyclopropyl-2-methoxyphenyl)-3′-isopropyl-3′H-spiro[dihydroindole-3,4′-pyrrolo[3,4-d]imidazole]-2,6′(5′H)-dione] has an IC50 of 689 nM.
In the case of `COc1nc(N2CCC2)ncc1-c1nc2c(n1C(C)C)[C@]1(C(=O)Nc3cc(Cl)ccc31)N(c1cc(Cl)ccc1C)C2=O` [Example R-117, (R)-2′-(2-(12zetidine-1-yl)-4-methoxypyrimidin-5-yl)-6-chloro-5′-(5-chloro-2-methylphenyl)-3′-isopropyl-3′H-spiro[dihydroindole-3,4′-pyrrolo[3,4-d]imidazole]-2,6′(5′ H)-dione], the IC50 is reported as 233 nM.
Molecule `COc1nc(C)ncc1-c1nc2c(n1C(C)C)[C@]1(C(=O)Nc3cc(Cl)ccc31)N(c1cc(Cl)ccc1C)C2=O` [Example R-118, (R)-6-chloro-5′-(5-chloro-2-methylphenyl)-3′-isopropyl-2′-(4-methoxy-2-methylpyrimidin-5-yl)-3′H-spiro[dihydroindole-3,4′-pyrrolo[3,4-d]imidazole]-2,6′(5′H)-dione] has an IC50 of 436 nM.
Work on `CCN(C)c1ncc(-c2nc3c(n2C(C)C)[C@]2(C(=O)Nc4cc(Cl)ccc42)N(c2cc(Cl)ccc2C)C3=O)c(OC)n1` [Example R-119, (R)-6-chloro-5′-(5-chloro-2-methylphenyl)-2′-(2-(ethyl(methyl)amino)-4-methoxypyrimidin-5-yl)-3′-isopropyl-3′H-spiro[dihydroindole-3,4′-pyrrolo[3,4-d]imidazole]-2,6′(5′H)-dione] yielded an IC50 of 851 nM.
`COc1cc(OC(F)(F)F)ccc1-c1nc2c(n1C(C)C)[C@]1(C(=O)Nc3cc(Cl)ccc31)N(c1cccc(Cl)c1)C2=O` [Example R-120, (R)-6-chloro-5′-(3-chlorophenyl)-3′-isopropyl-2′-(2-methoxy-4-(trifluoromethoxy)phenyl)-3′H-spiro[dihydroindole-3,4′-pyrrolo[3,4-d]imidazole]-2,6′(5′H)-dione] was tested, and the IC50 was 4780 nM.
`COc1nc(C2CC2)ncc1-c1nc2c(n1C(C)C)[C@]1(C(=O)Nc3cc(Cl)ccc31)N(c1cc(Cl)ccc1C)C2=O` [Example R-121, (R)-6-chloro-5′-(5-chloro-2-methylphenyl)-2′-(2-cyclopropyl-4-methoxypyrimidin-5-yl)-3′-isopropyl-3′H-spiro[dihydroindole-3,4′-pyrrolo[3,4-d]imidazole]-2,6′ (5′H)-dione] was tested, and the IC50 was 300 nM.
In the case of `COc1nc(C2CC2)ncc1-c1nc2c(n1C(C)C)[C@]1(C(=O)Nc3cc(Cl)ccc31)N(c1cccc(Cl)c1)C2=O` [Example R-122, (R)-6-chloro-5′-(3-chlorophenyl)-2′-(2-cyclopropyl-4-methoxypyrimidin-5-yl)-3′-isopropyl-3′H-spiro[dihydroindole-3,4′-pyrrolo[3,4-d]imidazole]-2,6′(5′H)-dione], the IC50 is reported as 794 nM.
`CCOc1ncc(-c2nc3c(n2C(C)C)[C@]2(C(=O)Nc4cc(Cl)ccc42)N(c2cccc(Cl)c2)C3=O)c(OC)n1` [Example R-123, (R)-6-chloro-5′-(3-chlorophenyl)-2′-(2-ethoxy-4-methoxypyrimidin-5-yl)-3′-isopropyl-3′H-spiro[dihydroindole-3,4′-pyrrolo[3,4-d]imidazole]-2,6′(5′H)-dione] showed an IC50 of 116 nM.
In the case of `COc1nc(OC(C)C)ncc1-c1nc2c(n1C(C)C)[C@]1(C(=O)Nc3cc(Cl)ccc31)N(c1cccc(Cl)c1)C2=O` [Example R-124, (R)-6-chloro-5′-(3-chlorophenyl)-2′-(2-isopropoxy-4-methoxypyrimidin-5-yl)-3′-isopropyl-3′H-spiro[dihydroindole-3,4′-pyrrolo[3,4-d]imidazole]-2,6′(5′H)-dione], the IC50 is reported as 1310 nM.
In the case of `COc1cc(C#N)ccc1-c1nc2c(n1C(C)C)[C@]1(C(=O)Nc3cc(Cl)ccc31)N(c1cccc(Cl)c1)C2=O` [Example R-128, (R)-4-(6-chloro-5′-(3-chlorophenyl)-3′-isopropyl-2,6′-dioxo-5′,6′-dihydro-3′H-spiro[dihydroindole-3,4′-pyrrolo[3,4-d]imidazole]-2′-yl)-3-methoxybenzonitrile], the IC50 is reported as 612 nM.
Work on `COc1cc(C(F)(F)F)ccc1-c1nc2c(n1C(C)C)[C@]1(C(=O)Nc3cc(Cl)ccc31)N(c1cccc(Cl)c1)C2=O` [Example R-129, (R)-6-chloro-5′-(3-chlorophenyl)-3′-isopropyl-2′-(2-methoxy-4-(trifluoromethyl)phenyl)-3′H-spiro[dihydroindole-3,4′-pyrrolo[3,4-d]imidazole]-2,6′(5′H)-dione] yielded an IC50 of 149 nM.
`COc1cc(F)c(-c2nc3c(n2C(C)C)[C@]2(C(=O)Nc4cc(Cl)ccc42)N(c2cc(Cl)ccc2C)C3=O)c(OC)c1` [Example R-130, (R)-6-chloro-5′-(5-chloro-2-methylphenyl)-2′-(2-fluoro-4,6-dimethoxyphenyl)-3′-isopropyl-3′H-spiro[dihydroindole-3,4′-pyrrolo[3,4-d]imidazole]-2,6′(5′H)-dione] showed an IC50 of 568 nM.
Work on `COc1cc(OC)c(-c2nc3c(n2C(C)C)[C@]2(C(=O)Nc4cc(Cl)ccc42)N(c2cc(Cl)cnc2C)C3=O)cn1` [Example R-131, (R)-6-chloro-5′-(5-chloro-2-methylpyridin-3-yl)-2′-(4,6-dimethoxypyridin-3-yl)-3′-isopropyl-3′H-spiro[dihydroindole-3,4′-pyrrolo[3,4-d]imidazole]-2,6′(5′H)-dione] yielded an IC50 of 120 nM.
